Measured values as given in PMC12446476 (Nature Communications, 2025).
In brackets after ≈: the same amount, converted by molar mass. Like-named read-outs stand apart in the source and are kept apart here.

Test system: N. gonorrhoeae
Assay: MIC determination, Etest
Assay type: cell-based, Neisseria gonorrhoeae
Details: for MIC: Neisseria gonorrhoeae
From the text: The 2024 WHO N. gonorrhoeae reference strains were used for quality control. Only whole MIC doubling dilutions are reported. Clinical breakpoints or the epidemiological cutoff (ECOFF, to indicate azithromycin resistance) from EUCAST (v14.0, https://www.eucast.org/clinical_breakpoints) were used to classify isolates as antimicrobial susceptible or resistant. […] Two times the standard inoculum defined by CLSI was used to establish consistent growth in untreated control samples for some strains. In vitro time-kill assays were performed according to CLSI guidelines[65] using Columbia Broth (BD Difco) supplemented with 1% IsoVitaleX Enrichment (BD). Viable bacterial counts were generated by plating 10-fold serially diluted samples on GC agar plates containing 1% IsoVitaleX Enrichment (BD).

CN[C@@H]1[C@H](O)[C@H](NC)[C@H]2O[C@@]3(O)C(=O)C[C@@H](C)O[C@H]3O[C@@H]2[C@H]1O [Spectinomycin]
susceptibility of all isolates (100 contemporary clinical N. gonorrhoeae isolates, EUCAST): susceptible | MIC (WHO F, Etest, read-out: MIC): 16 µg/mL (≈ 48.1 µM) | MIC (WHO H, Etest, read-out: MIC): 8 µg/mL (≈ 24.1 µM) | MIC (WHO K, Etest, read-out: MIC): 16 µg/mL (≈ 48.1 µM) | MIC (WHO L, Etest, read-out: MIC): 16 µg/mL (≈ 48.1 µM) | MIC (WHO M, Etest, read-out: MIC): 16 µg/mL (≈ 48.1 µM) | MIC (WHO O, Etest, read-out: MIC): > 1020 µg/mL | MIC (WHO P, Etest, read-out: MIC): 8 µg/mL (≈ 24.1 µM) | MIC (WHO Q, Etest, read-out: MIC): 8 µg/mL (≈ 24.1 µM) | MIC (WHO R, Etest, read-out: MIC): 8 µg/mL (≈ 24.1 µM) | MIC (WHO S2, Etest, read-out: MIC): 16 µg/mL (≈ 48.1 µM) | MIC (WHO U, Etest, read-out: MIC): 8 µg/mL (≈ 24.1 µM) | MIC (WHO V, Etest, read-out: MIC): 16 µg/mL (≈ 48.1 µM) | MIC (WHO X, Etest, read-out: MIC): 16 µg/mL (≈ 48.1 µM) | MIC (WHO Y, Etest, read-out: MIC): 16 µg/mL (≈ 48.1 µM) | MIC (WHO Z, Etest, read-out: MIC): 16 µg/mL (≈ 48.1 µM) | MIC (comparator antibiotics, clinical N. gonorrhoeae isolate 1, Sweden 2023, read-out: Minimum inhibitory concentration): 16 µg/mL (≈ 48.1 µM) | MIC (comparator antibiotics, clinical N. gonorrhoeae isolate 2, Sweden 2023, read-out: Minimum inhibitory concentration): 8 µg/mL (≈ 24.1 µM) | MIC (comparator antibiotics, clinical N. gonorrhoeae isolate 3, Sweden 2023, read-out: Minimum inhibitory concentration): 16 µg/mL (≈ 48.1 µM) | MIC (comparator antibiotics, clinical N. gonorrhoeae isolate 4, Sweden 2023, read-out: Minimum inhibitory concentration): 16 µg/mL (≈ 48.1 µM) | MIC (comparator antibiotics, clinical N. gonorrhoeae isolate 5, Sweden 2023, read-out: Minimum inhibitory concentration): 8 µg/mL (≈ 24.1 µM) | MIC (comparator antibiotics, clinical N. gonorrhoeae isolate 6, Sweden 2023, read-out: Minimum inhibitory concentration): 8 µg/mL (≈ 24.1 µM) | MIC (comparator antibiotics, clinical N. gonorrhoeae isolate 7, Sweden 2023, read-out: Minimum inhibitory concentration): 16 µg/mL (≈ 48.1 µM) | MIC (comparator antibiotics, clinical N. gonorrhoeae isolate 8, Sweden 2023, read-out: Minimum inhibitory concentration): 16 µg/mL (≈ 48.1 µM) | MIC (comparator antibiotics, clinical N. gonorrhoeae isolate 9, Sweden 2023, read-out: Minimum inhibitory concentration): 8 µg/mL (≈ 24.1 µM) | MIC (comparator antibiotics, clinical N. gonorrhoeae isolate 10, Sweden 2023, read-out: Minimum inhibitory concentration): 16 µg/mL (≈ 48.1 µM) | MIC (comparator antibiotics, clinical N. gonorrhoeae isolate 11, Sweden 2023, read-out: Minimum inhibitory concentration): 16 µg/mL (≈ 48.1 µM) | MIC (comparator antibiotics, clinical N. gonorrhoeae isolate 12, Sweden 2023, read-out: Minimum inhibitory concentration): 16 µg/mL (≈ 48.1 µM) | MIC (comparator antibiotics, clinical N. gonorrhoeae isolate 13, Sweden 2023, read-out: Minimum inhibitory concentration): 16 µg/mL (≈ 48.1 µM) | MIC (comparator antibiotics, clinical N. gonorrhoeae isolate 14, Sweden 2023, read-out: Minimum inhibitory concentration): 16 µg/mL (≈ 48.1 µM) | MIC (comparator antibiotics, clinical N. gonorrhoeae isolate 15, Sweden 2023, read-out: Minimum inhibitory concentration): 16 µg/mL (≈ 48.1 µM) | MIC (comparator antibiotics, clinical N. gonorrhoeae isolate 16, Sweden 2023, read-out: Minimum inhibitory concentration): 8 µg/mL (≈ 24.1 µM) | MIC (comparator antibiotics, clinical N. gonorrhoeae isolate 17, Sweden 2023, read-out: Minimum inhibitory concentration): 8 µg/mL (≈ 24.1 µM) | MIC (comparator antibiotics, clinical N. gonorrhoeae isolate 18, Sweden 2023, read-out: Minimum inhibitory concentration): 16 µg/mL (≈ 48.1 µM) | MIC (comparator antibiotics, clinical N. gonorrhoeae isolate 19, Sweden 2023, read-out: Minimum inhibitory concentration): 16 µg/mL (≈ 48.1 µM) | MIC (comparator antibiotics, clinical N. gonorrhoeae isolate 20, Sweden 2023, read-out: Minimum inhibitory concentration): 16 µg/mL (≈ 48.1 µM) | MIC (comparator antibiotics, clinical N. gonorrhoeae isolate 21, Sweden 2023, read-out: Minimum inhibitory concentration): 16 µg/mL (≈ 48.1 µM) | MIC (comparator antibiotics, clinical N. gonorrhoeae isolate 22, Sweden 2023, read-out: Minimum inhibitory concentration): 8 µg/mL (≈ 24.1 µM) | MIC (comparator antibiotics, clinical N. gonorrhoeae isolate 23, Sweden 2023, read-out: Minimum inhibitory concentration): 8 µg/mL (≈ 24.1 µM) | MIC (comparator antibiotics, clinical N. gonorrhoeae isolate 24, Sweden 2023, read-out: Minimum inhibitory concentration): 16 µg/mL (≈ 48.1 µM) | MIC (comparator antibiotics, clinical N. gonorrhoeae isolate 25, Sweden 2023, read-out: Minimum inhibitory concentration): 8 µg/mL (≈ 24.1 µM) | MIC (comparator antibiotics, clinical N. gonorrhoeae isolate 26, Sweden 2023, read-out: Minimum inhibitory concentration): 16 µg/mL (≈ 48.1 µM) | MIC (comparator antibiotics, clinical N. gonorrhoeae isolate 27, Sweden 2023, read-out: Minimum inhibitory concentration): 8 µg/mL (≈ 24.1 µM) | MIC (comparator antibiotics, clinical N. gonorrhoeae isolate 28, Sweden 2023, read-out: Minimum inhibitory concentration): 8 µg/mL (≈ 24.1 µM) | MIC (comparator antibiotics, clinical N. gonorrhoeae isolate 29, Sweden 2023, read-out: Minimum inhibitory concentration): 16 µg/mL (≈ 48.1 µM) | MIC (comparator antibiotics, clinical N. gonorrhoeae isolate 30, Sweden 2023, read-out: Minimum inhibitory concentration): 8 µg/mL (≈ 24.1 µM) | MIC (comparator antibiotics, clinical N. gonorrhoeae isolate 31, Sweden 2023, read-out: Minimum inhibitory concentration): 8 µg/mL (≈ 24.1 µM) | MIC (comparator antibiotics, clinical N. gonorrhoeae isolate 32, Sweden 2023, read-out: Minimum inhibitory concentration): 8 µg/mL (≈ 24.1 µM) | MIC (comparator antibiotics, clinical N. gonorrhoeae isolate 33, Sweden 2023, read-out: Minimum inhibitory concentration): 8 µg/mL (≈ 24.1 µM) | MIC (comparator antibiotics, clinical N. gonorrhoeae isolate 34, Sweden 2023, read-out: Minimum inhibitory concentration): 8 µg/mL (≈ 24.1 µM) | MIC (comparator antibiotics, clinical N. gonorrhoeae isolate 35, Sweden 2023, read-out: Minimum inhibitory concentration): 16 µg/mL (≈ 48.1 µM) | MIC (comparator antibiotics, clinical N. gonorrhoeae isolate 36, Sweden 2023, read-out: Minimum inhibitory concentration): 8 µg/mL (≈ 24.1 µM) | MIC (comparator antibiotics, clinical N. gonorrhoeae isolate 37, Sweden 2023, read-out: Minimum inhibitory concentration): 8 µg/mL (≈ 24.1 µM) | MIC (comparator antibiotics, clinical N. gonorrhoeae isolate 38, Sweden 2023, read-out: Minimum inhibitory concentration): 8 µg/mL (≈ 24.1 µM) | MIC (comparator antibiotics, clinical N. gonorrhoeae isolate 39, Sweden 2023, read-out: Minimum inhibitory concentration): 16 µg/mL (≈ 48.1 µM) | MIC (comparator antibiotics, clinical N. gonorrhoeae isolate 40, Sweden 2023, read-out: Minimum inhibitory concentration): 8 µg/mL (≈ 24.1 µM) | MIC (comparator antibiotics, clinical N. gonorrhoeae isolate 41, Sweden 2023, read-out: Minimum inhibitory concentration): 16 µg/mL (≈ 48.1 µM) | MIC (comparator antibiotics, clinical N. gonorrhoeae isolate 42, Sweden 2023, read-out: Minimum inhibitory concentration): 8 µg/mL (≈ 24.1 µM) | MIC (comparator antibiotics, clinical N. gonorrhoeae isolate 43, Sweden 2023, read-out: Minimum inhibitory concentration): 16 µg/mL (≈ 48.1 µM) | MIC (comparator antibiotics, clinical N. gonorrhoeae isolate 44, Sweden 2023, read-out: Minimum inhibitory concentration): 16 µg/mL (≈ 48.1 µM) | MIC (comparator antibiotics, clinical N. gonorrhoeae isolate 45, Sweden 2023, read-out: Minimum inhibitory concentration): 16 µg/mL (≈ 48.1 µM) | MIC (comparator antibiotics, clinical N. gonorrhoeae isolate 46, Sweden 2023, read-out: Minimum inhibitory concentration): 8 µg/mL (≈ 24.1 µM) | MIC (comparator antibiotics, clinical N. gonorrhoeae isolate 47, Sweden 2023, read-out: Minimum inhibitory concentration): 16 µg/mL (≈ 48.1 µM) | MIC (comparator antibiotics, clinical N. gonorrhoeae isolate 48, Sweden 2023, read-out: Minimum inhibitory concentration): 8 µg/mL (≈ 24.1 µM) | MIC (comparator antibiotics, clinical N. gonorrhoeae isolate 49, Sweden 2023, read-out: Minimum inhibitory concentration): 16 µg/mL (≈ 48.1 µM)
